In patent publication US8524736B2, “Stereoisomeric compounds and methods for the treatment of gastrointestinal and central nervous system disorders” (Armetheon, Inc., priority 2004, dated 2013):

Legend:
human 5-HT4 receptor = target: T1, human 5-HT4 receptor (Homo sapiens, UniProt Q13639); assay: adenylyl cyclase stimulation in cells stably expressing human 5-HT4 receptor; assay type: cell-based; conditions: negative logarithm of the EC50
T1 construct: expressed in transfected cells

CYP450 2D6 = CYP450 2D6 (Homo sapiens, UniProt P10635); conditions: recombinant enzyme
fasted, conscious dogs = assay: gastric, small intestinal and colonic motor activity in fasted, conscious dogs; conditions: for prokinetic effects in the dog gut: IV and PO; for effect on migrating motor complex (MMC) characteristics: antrum, proximal, mid and distal small intestine
[1] = test system: isolated, perfused guinea pig hearts
5-HT4 Receptor = target: T2, 5-HT4 Receptor (Cavia porcellus, UniProt O70528); assay: 5-HT4 Receptor Binding, Guinea Pig Striatum, [3H]GR113808; conditions: versus ATI-7500
T2 construct: Guinea Pig Striatum; from tissue; host or cells: guinea pig striatum

fed dogs = assay: gastric emptying in fed conscious dogs (time of MMC return); assay type: in vivo, dog; conditions: IV infusion over 20 minutes before a solid meal; FIG. 2
[2] = metabolism by esterases in human plasma

T1 sequence (Q13639 whole entry): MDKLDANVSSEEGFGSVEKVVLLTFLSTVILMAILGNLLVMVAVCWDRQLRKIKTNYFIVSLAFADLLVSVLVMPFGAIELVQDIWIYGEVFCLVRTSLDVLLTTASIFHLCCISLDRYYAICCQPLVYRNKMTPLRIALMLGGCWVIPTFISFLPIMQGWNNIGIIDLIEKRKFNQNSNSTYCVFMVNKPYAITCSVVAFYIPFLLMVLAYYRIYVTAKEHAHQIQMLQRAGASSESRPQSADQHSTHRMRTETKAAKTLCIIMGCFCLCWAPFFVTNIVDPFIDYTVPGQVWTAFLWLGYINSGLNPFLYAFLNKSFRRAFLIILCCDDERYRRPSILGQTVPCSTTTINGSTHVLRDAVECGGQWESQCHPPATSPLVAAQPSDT
Sequence of CYP450 2D6 (P10635 whole entry): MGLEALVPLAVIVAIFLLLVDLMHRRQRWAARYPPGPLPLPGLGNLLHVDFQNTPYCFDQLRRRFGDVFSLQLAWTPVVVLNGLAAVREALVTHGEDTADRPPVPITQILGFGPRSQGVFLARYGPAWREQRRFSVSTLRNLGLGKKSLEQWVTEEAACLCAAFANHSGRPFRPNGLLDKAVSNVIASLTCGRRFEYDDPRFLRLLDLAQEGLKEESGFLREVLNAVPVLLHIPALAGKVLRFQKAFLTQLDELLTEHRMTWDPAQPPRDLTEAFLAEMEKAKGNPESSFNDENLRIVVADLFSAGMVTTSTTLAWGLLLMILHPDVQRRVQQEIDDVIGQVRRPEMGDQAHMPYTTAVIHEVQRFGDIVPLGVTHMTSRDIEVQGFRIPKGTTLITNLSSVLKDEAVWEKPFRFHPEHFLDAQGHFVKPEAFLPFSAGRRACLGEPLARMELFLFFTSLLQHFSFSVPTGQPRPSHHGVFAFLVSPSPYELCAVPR
T2 sequence (O70528 whole entry): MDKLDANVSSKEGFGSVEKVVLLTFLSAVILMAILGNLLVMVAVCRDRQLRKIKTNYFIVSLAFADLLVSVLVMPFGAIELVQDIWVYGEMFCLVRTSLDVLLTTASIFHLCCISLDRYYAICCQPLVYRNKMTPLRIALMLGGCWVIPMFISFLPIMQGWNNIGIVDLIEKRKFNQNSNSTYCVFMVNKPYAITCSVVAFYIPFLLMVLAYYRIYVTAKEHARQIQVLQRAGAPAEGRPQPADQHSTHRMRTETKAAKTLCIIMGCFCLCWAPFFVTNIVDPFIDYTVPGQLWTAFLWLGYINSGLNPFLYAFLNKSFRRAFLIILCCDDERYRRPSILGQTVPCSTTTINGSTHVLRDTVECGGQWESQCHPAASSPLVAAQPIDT

Row | Structure (SMILES) | Potency pEC50 (human 5-HT4 receptor) | inhibitory activity against CYP450 2D6 (CYP450 2D6) | prokinetic effects in the dog gut (fasted, conscious dogs) | effect on migrating motor complex (MMC) characteristics (fasted, conscious dogs) | antral and small bowel contractility (fasted, conscious dogs; fasted dogs) | colonic motor activity (fasted, conscious dogs; fasted dogs) | modulation of cardiac electrophysiologic parameters [1] | affinity for the 5-HT4 receptor, fold greater than ATI-7500 (5-HT4 Receptor) | time of MMC return (index of gastric emptying) (fed dogs) | side effects such as diarrhea, anorexia, or weight loss (fasted, conscious dogs; IV and PO doses, dogs) | MMC frequency in the proximal small intestine relative to controls (fasted, conscious dogs; PO) | development of retrograde giant migrating contractions (fasted, conscious dogs; fasted dogs) | metabolism by esterases in human plasma [2]
1 | COc1cc(N)c(Cl)cc1C(=O)N[C@@H]1CCN(CCCCCC(=O)O)C[C@@H]1OC [ATI-7500, 6-((3S,4R)-4-(4-amino-5-chloro-2-methoxybenzamido)-3-methoxypiperidin-1-yl)hexanoic acid] | 6.40 | – | – | – | – | – | – | – | – | – | – | – | –
2 | COc1cc(N)c(Cl)cc1C(=O)NC1CCN(CCCOc2ccc(F)cc2)CC1OC (stereo not drawn) [Cisapride, reference compound] | – | significant inhibitory activity | caused prokinetic effects | minimal effect | dose-dependent stimulation of antral and small bowel contractility | relatively little effect on colonic motor activity | – | – | – | – | – | – | –
3 | COc1cc(N)c(Cl)cc1C(=O)N[C@@H]1CCN(CCCCCC(=O)O[C@H]2CN3CCC2CC3)C[C@@H]1OC [ATI-7505, 6-[4R-(4-amino-5-chloro-2-methoxy-benzoylamino)-3S-methoxy-piperidin-1-yl]-hexanoic acid 1-aza-bicyclo[2.2.2]oct-3′R-yl ester] | 8.45 | – | caused prokinetic effects | minimal effect | dose-dependent stimulation of antral and small bowel contractility | relatively little effect on colonic motor activity | very weak modulator of cardiac electrophysiologic parameters | at least 360 fold | significantly shortened the time of MMC return | exhibited no side effects | increased MMC frequency | not associated with the development of retrograde giant migrating contractions | rapidly metabolized by esterases in human plasma
